Where two headings read alike, the source gives them in different places.

The values below come from patent publication US20150125904A1, “PROBE INCORPORATION MEDIATED BY ENZYMES” (Massachusetts Institute of Technology, priority 2012, published 2015).

The nature of data set [1]: Tetrazine-dye fluorescence turn-on after Diels-Alder cycloaddition. The conditions noted are these: DPBS pH 7.4, >100-fold excess TCO1. In kind it is physicochemical. How it is done: Tetrazine-fluorophore conjugates were dissolved in Dulbecco's phosphate buffered saline, pH 7.4 at approximately 100 nM concentration. Solutions with >100-fold excess TCO1 in DMSO or DMSO vehicle alone added were transferred into an opaque, flat-bottom 96-well plate (Greiner Bio One) and their fluorescence emission scanned with a Safire Tecan fluorescence microplate reader. Excitation was fixed at 430 nm for fluorescein, 530 nm for TMR, and 610 nm for Alexa 647. Fold-changes in fluorescence turn-on are reported at respective fluorescence emission maximum wavelengths.

Data set [2] in a line: In vitro second-order Diels-Alder cycloaddition rate constant. To be noted: DPBS, pseudo-first-order approximation. The procedure: Ligation reaction was allowed to proceed at 30° C. for 4 hours to maximize ligation yield. The mixture was then resolved by preparatory HPLC on a C-18 column (25-45% acetonitrile over 30 min. linear gradient, supplemented with 0.1% v/v trifluoroacetic acid), where the product eluted at 19 min. and its identity confirmed by ESI mass spectrometry. The eluate was freeze-dried into a white powder and dissolved in DPBS for subsequent measurements.
To measure second-order rate constant by pseudo-first-order approximation, 100 μL Tz1- or Tz2-fluorescein (100 nM in DPBS) was loaded into an opaque, flat-bottom 96-well plate (Greiner Bio One), then mixed with 100 μL LAP-TCO2 (3.3 μM in DPBS). The fluorescence intensity at 520 nm was immediately recorded at 9-second intervals until the reaction reached completion in approximately 5 minutes. The fluorescence intensity was then converted to [tetrazine-fluorescein], assuming that initial fluorescence corresponded to 50 nM and final fluorescence corresponded to 0 nM tetrazine-fluorescein. […] Measurements were performed in triplicate.

The subject of data set [3] is LAP-LDL receptor on HEK cells. The data set is described as follows: Live cell surface fluorogenic labeling without dye washout. It is filed as cell-based, human. The conditions noted are these: 50 nM, without rinsing. The procedure: After 5 rinses with Tyrode's buffer, the chamber was placed on the microscope objective covered with 200 μL of the same buffer. Image acquisition sequence was initiated immediately after 200 μL of 100 nM Tz1-fluorescein in Tyrode's buffer was added to the chamber, and briefly mixed by pipeting. Final concentration of Tz1-fluorescein was therefore 50 nM after mixing. LAP-LDL receptor and a mCherry fluorescent protein transfection marker were transfected at a 1:1 ratio, with altogether 400 ng plasmid per 1 cm^2 culture.
To quantify the imaging signal/noise ratio, 17 cells with obvious surface fluorescence (by eye) at the 180 sec. time point were chosen and separate masks created automatically by the Slidebook software over the fluorescent rims. The averaged pixel intensity was defined as “signal”. To measure noise, 10 cells with no obvious surface fluorescence (by eye) at the 180 sec. time point were chosen, and rectangular masks created manually over the interiors of these cells. The averaged (over all 10 masks) pixel intensity was defined as “noise”.

Data set [4] concerns the target T1, W37ILplA (Escherichia coli, UniProt P32099, W38I).
T1 construct: His6 (N); made in house; host or cells: E. coli
It is filed as biochemical, E. coli. The procedure: Reactions were quenched with 40 mM EDTA (ethylenediaminetetraacetic acid, final concentration). Percent conversion to LAP-azide adduct was determined by HPLC with a C18 reverse phase column, recording absorbance at 210 nm. Elution conditions were 30-60% acetonitrile in water with 0.1% trifluoroacetic acid over 20 minutes at 1.0 mL/min flow rate. The percent conversion was calculated from the ratio of LAP-azide to sum of (unmodified LAP+LAP-azide). Reactions containing 1 μM LplA enzyme, 500 μM azide 9, and 300 μM LAP peptide were incubated at 30° C. for 2 hours. To determine kinetic measurements, reactions containing 100 nM W37ILplA, 25-700 μM azide 9, and 600 μM LAP peptide were incubated at 30° C., before quenching at various time points with EDTA.
Reactions were set up as described in the main text. Aliquots were taken and quenched before product conversion exceeded 5%. To calculate initial rates, we determined the amount of product at each time point by generating a calibration curve using purified LAP and LAP-azide 9 mixed at different ratios. This curve correlated the measured ratio of integrated HPLC peak areas to the actual ratio, i.e. adjusted for any differences in extinction coefficient of LAP vs. LAP-azide 9. Initial rates (Vo) were determined at each azide 9 concentration, by plotting the amount of LAP-azide 9 product against time. The slope of the line gives Vo. Vo values were then plotted against azide 9 concentration in FIG. S3C, and Origin 8.5.1 was used to fit the curve to the Michaelis-Menten equation Vo=Vmax[azide 9]/(Km+[azide 9]). From the Vmax, kcat was calculated using Vmax=kcat[E]total. Measurements of Vo values at each azide 9 concentration were performed in triplicate.

Data set [5] deals with T2, W37ILplA / LAP-YFP in HEK cells (Escherichia coli, UniProt P32099, W38I).
T2 construct: expressed in transfected cells; host or cells: HEK cells
The data set is described as follows: Azide ligation yield in cells (native gel shift of LAP-YFP), W37ILplA. In kind it is cell-based, E. coli. How it is done: (§1) For azide 7 ligation, cells were transfected with 50 ng WTLplA and 1000 ng pcDNA3-LAP-YFP. For azide 9 ligation, cells were transfected with 500 ng W37ILplA and either 1000 ng pcDNA3-LAP-YFP or pcDNA3-LAP(K⋄A)-YFP using Lipofectamine 2000 (Life Technologies). The LplA:LAP plasmid ratios are identical to the conditions used for imaging. 18 hr after transfection, cells were incubated in growth media (MEM supplemented with 10% FBS) containing 200 μM azide 7 or azide 9 for 30 min or 1 hr at 37° C. Excess azide probe was washed out over 1 hr. […] Cells were then centrifuged at 13,000 rpm for 2 min, and the supernatant was analyzed on a 12% polyacrylamide native gel without SDS (5 μL lysate per lane) at constant 200 V. Prior to Coomassie staining, in-gel fluorescence of YFP was visualized on a FUJIFILM FLA-9000 instrument using LD473 laser and Long Pass Blue (LPB) filter. […]
(§2) We also used a gel shift assay as a separate readout of azide ligation yield inside cells. […] The yield of azide ligation to LAP-YFP was determined by shift on a native polyacrylamide gel. The unmodified fusion protein, visualized by YFP fluorescence, runs at an apparent molecular weight of ˜42 kD. […]
(In EMSA bound probe runs differently from free probe, usually more slowly.)

For another data set, the target named is Trp37→Ile LplA (Escherichia coli, UniProt P32099, W38I). To be noted: 30 min reaction, 500 μM probe; normalized to TCO2/Trp37→Val. How it is done: LplA protein was purified as previously described2 and stored at −80° C. in 20 mM Tris-HCl, pH 7.5 supplementated with 10% v/v glycerol. Reactions were quenched with 30 mM EDTA (final concentration) and resolved by HPLC (Varian ProStar) on a C-18 column using a linear gradient of 25-60% acetonitrile in H2O (with 0.1% v/v trifluoroacetic acid) over 14 minutes. Species were detected at 210 nm absorbance. Peaks corresponding to LAP and its trans-cyclooctene adducts were confirmed by ESI mass spectrometry. The extent of conversion was calculated from ratios of peak areas, neglecting minor extinction coefficient changes to LAP due to trans-cyclooctene ligation.
The relative abilities of wild-type and mutant ligases to ligate TCO1-3 onto LplA acceptor peptide (LAP) were measured by an HPLC assay after 30 min. reaction time. […] Errors, ±1 s. d.

The target in data set [6] is T1, W37ILplA. The data set is described as follows: In vitro screening for Ald and Hyd ligation activity (HPLC). In kind it is biochemical, E. coli. To be noted: 1 μM W37ILplA, 500 μM probe. How it is done:
Ligation reactions were assembled as follows: 1 μM of purified LplA mutant (Uttamapinant, et al., 2010), 150 μM synthetic LAP2 peptide ([…]; SEQ ID NO:4), 5 mM ATP, 500 μM of either Ald or Hyd probe, 5 mM magnesium acetate, and 25 mM Na2HPO4 pH 7.2 in a total volume of 20 μL. Reactions were incubated for 5 to 60 min at 30° C. and then quenched with EDTA to a final concentration of 45 mM. Samples were diluted to a total volume of 80 μL in conjugation buffer (10 mM Na2HPO4, 3.2 mM KH2PO4, 2.7 mM KCl, 140 mM NaCl, pH 5.0) and analyzed on a Varian Prostar HPLC using a reverse-phase C18 Microsorb-MV 100 column (250×4.6 mm). Chromatograms were recorded at 210 nm. For analysis of the aldehyde ligation reaction we used a 10-minute gradient of 30-60% acetonitrile in water with 0.1% trifluoroacetic acid under 1 mL/minute flow rate. For analysis of the hydrazine ligation reaction a gradient of 25-60% over 14 minutes with the same solvents was used. Percent conversions were calculated by dividing the product peak area by the sum of (product+starting material) peak areas. Reactions were performed in triplicate (Ald) or duplicate (Hyd) and the average values are shown. Reactions in FIG. 27C were performed using the conditions above with a 70 minute reaction time for Ald and 120 minute reaction time for Hyd.

Data set [7] concerns the target T1, W37ILplA. The data set is described as follows: Measurement of kcat values for Ald and Hyd ligation. In kind it is biochemical, E. coli. To be noted: for Vmax / kcat: 1 μM W37ILplA, 600 μM LAP, 500 μM probe. How it is done:
Values of kcat for W37ILplA ligation of the Ald and Hyd probes onto LAP peptide were determined by measuring the initial reaction rates by HPLC. The conditions used were as follows: 1 μM W37ILplA, 600 μM LAP, 500 μM of Ald or Hyd, 2 mM magnesium acetate, and 25 mM sodium phosphate buffer, pH 7.2. Each initial rate was measured in triplicate and the average value reported. The error shown represents ±1 s.d. The equation kcat=Vmax/[E] was used to determine the kcat value.

A further data set has as its target W37VLplA (Escherichia coli, UniProt P32099, W38V). To be noted: 500 μM probe, 500 μM LAP, 30° C. The procedure: After 5, 10, 15 and 20 minutes, an aliquot was drawn from the reaction vial, quenched with 30 mM EDTA (final concentration) and the product quantified by HPLC as in Table 3. The plot of product concentration against time was fitted to a linear line whose slope corresponds to the initial velocity. The value of kcat was calculated from the Michaelis-Menten equation Vmax=(kcat)([Enzyme]) at substrate-saturating conditions. Measurements were performed in triplicate.

Data set [8] addresses T3, WTLplA / LAP-YFP in HEK cells (Escherichia coli, UniProt P32099).
T3 construct: expressed in transfected cells; host or cells: HEK cells
As to the kind of experiment: Azide ligation yield in cells (native gel shift of LAP-YFP), wild-type LplA. In kind it is cell-based, E. coli. How it is done: as §1, §2

[9] abbreviates: 100 nM W37ILplA, 600 μM LAP, 30° C.

T1 sequence (P32099 2-338 W38I): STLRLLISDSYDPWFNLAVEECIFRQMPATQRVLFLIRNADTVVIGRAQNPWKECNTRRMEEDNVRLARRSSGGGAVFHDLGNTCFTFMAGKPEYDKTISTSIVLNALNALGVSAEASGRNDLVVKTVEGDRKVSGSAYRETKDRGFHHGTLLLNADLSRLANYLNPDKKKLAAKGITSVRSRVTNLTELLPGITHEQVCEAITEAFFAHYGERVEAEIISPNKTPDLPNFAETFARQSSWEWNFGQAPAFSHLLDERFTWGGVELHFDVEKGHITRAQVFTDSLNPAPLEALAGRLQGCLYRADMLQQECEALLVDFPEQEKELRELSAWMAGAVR
T2 sequence (P32099 2-338 W38I): as above
T3 sequence (P32099 2-338): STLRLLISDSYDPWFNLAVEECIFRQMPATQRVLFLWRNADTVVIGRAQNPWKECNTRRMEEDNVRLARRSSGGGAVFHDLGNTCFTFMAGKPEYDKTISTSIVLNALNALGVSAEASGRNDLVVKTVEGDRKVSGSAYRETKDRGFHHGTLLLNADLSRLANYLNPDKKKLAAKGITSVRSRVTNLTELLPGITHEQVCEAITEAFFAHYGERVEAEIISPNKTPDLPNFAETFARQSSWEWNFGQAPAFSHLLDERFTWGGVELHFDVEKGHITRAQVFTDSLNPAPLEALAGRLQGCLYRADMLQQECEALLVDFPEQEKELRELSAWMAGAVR
Trp37→Ile LplA, sequence (P32099 2-338 W38I): as the sequence (P32099 2-338 W38I) above
W37VLplA, sequence (P32099 2-338 W38V): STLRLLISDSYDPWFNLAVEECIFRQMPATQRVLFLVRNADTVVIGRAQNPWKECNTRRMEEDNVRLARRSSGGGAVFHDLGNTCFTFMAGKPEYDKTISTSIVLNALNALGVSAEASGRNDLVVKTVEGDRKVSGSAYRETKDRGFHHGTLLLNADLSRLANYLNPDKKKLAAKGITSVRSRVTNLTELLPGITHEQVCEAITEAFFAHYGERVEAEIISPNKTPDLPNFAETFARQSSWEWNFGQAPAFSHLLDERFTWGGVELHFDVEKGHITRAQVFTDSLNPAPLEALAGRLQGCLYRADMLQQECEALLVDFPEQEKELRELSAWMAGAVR

On to “Aminobenzyltetrazine carboxyfluorescein [Tz1-fluorescein]”, for which the “increase in fluorescein emission upon reaction with excess trans-cyclooctene” value in [1] is reported as 13.4 fold. Besides, the “second order rate constant for reaction with TCO2-ligated LAP” value in data set [2] was found to be 5000 ± 700 M⁻¹ s⁻¹. The “time to saturation of signal-to-noise ratio” value in data set [3] was “approximately 3 minutes”.

With `[N-]=[N+]=NCCCCCCCCCC(=O)O` [azide 9, 10-azidodecanoic acid], at W37ILplA [4], the “Km lower than azide 7 ligation catalyzed by wild-type LplA” value was found to be 4 fold, the “improvement in kcat/Km over azide 7 ligation catalyzed by wild-type LplA” value is 2 fold and the “kcat reduced compared to azide 7 ligation catalyzed by wild-type LplA” value was found to be 1.8 fold. Also, at W37ILplA [4] (setting [9]), the Km is 35 µM and the kcat amounted to 0.0603 s⁻¹. The “ligation yield in cells, repeat of the experiment” value in data set [5] (500 ng W37ILplA plasmid) is listed as 89%. In data set [5] (200 μM azide, 30 minutes incubation), the “ligation yield in cells” value was “nearly quantitative”.

In the case of `O=C(O)CCCNC(=O)O[C@H]1CC/C=C/CCC1` (stereo in doubt) [TCO1, rel-(1R-4E-pR)-cyclooct-4-ene-1-yl-N-butyric acid carbamate], the “Ligation efficiency (average, normalized product percentage), Trp37→Ile” value on Trp37→Ile LplA amounted to 0.5 ± 0.4%.

`NNc1ccc(C(=O)NCCCCC(=O)O)cn1` [Hyd]: the reaction completion at W37ILplA [6] (60 min) worked out at 50%. Also, at W37ILplA [7], the Vmax was determined as 1.25 ± 0.16 µM/min and the kcat is 0.021 ± 0.003 s⁻¹.

For the compound `O=Cc1ccc(C(=O)NCCCCC(=O)O)cc1` [Ald], at W37ILplA [6] (150 μM LAP peptide, 5 minutes), the reaction completion is 62%. Moreover, on W37ILplA [7], the “activity of Ald versus Hyd” value is recorded as “ten-fold greater activity”, the maximal velocity (Vmax) was determined as 19.7 ± 0.7 µM/min and the turnover number (kcat) is 0.33 ± 0.01 s⁻¹.

As to `O=C(O)CCCCNC(=O)O[C@H]1CC/C=C/CCC1` (stereo in doubt) [TCO2, rel-(1R-4E-pR)-cyclooct-4-ene-1-yl-N-pentanoic acid carbamate], the “Michaelis-Menten kcat of ligation onto LAP” value on W37VLplA was determined as 0.34 ± 0.02 s⁻¹.

As for “2-Azidomethyl-4-chloropyridine [Azide 7]”, the “ligation yield in cells, repeat of the experiment” value in [8] (50 ng WTLplA plasmid) amounted to 67%. Further, in [8] (200 μM azide, 1 hour labeling, densitometry), the “ligation yield in cells” value came out at 73%.

Usually Km stands for the concentration of substrate that gives half-maximal velocity. As a reminder, the kcat is the maximal rate divided by the concentration of active sites. The term Vmax denotes the top rate of the reaction or transport when substrate is in excess.
